Patent US6696495B2, “Treatment of disorders secondary to organic impairments” (Snowden Pharmaceuticals, LLC, priority 1998, dated 2004)

Experiments:
[1] = system: Dementia, Alzheimer's-Type; experiment: Case history 24; type: in vivo, human; conditions: before sibutramine
Protocol: 24. The Symptoms Due to Dementia, Alzheimer's-Type
person one was diagnosed with Dementia. The symptoms they suffered from included memory loss and severe confusion. They tried a variety of treatments to relieve their symptoms including choldine esterase inhibitors, antidepressants, Ritilin, and aterol. […] They were then tested off of sibutramine. […] They began to suffer from a lowered I.Q. and their memory deteriorated.

[2] = system: Non-Tourette's tics, obsessive-compulsive rituals, and attention deficit hyperactive disorder (ADHD); conditions: before sibutramine
[3] = system: Tourette's Disease Tics, Violence, and ADHD; experiment: Case history 8, Sibutramine Patient No. 47; type: in vivo, human; conditions: over six years before sibutramine
[4] = system: Huntington's Disease; experiment: Case history 12, Sibutramine Patient No. 113; type: in vivo, human; conditions: after worsening of symptoms
[5] = system: Tourette's Tics, Asocial Behavior, and Relief of Hyposexuality; conditions: before sibutramine
[6] = system: Sexual Gender Choice Change; experiment: Case history 7, Sibutramine Patient No. 99; type: in vivo, human; conditions: depression; impulsive behaviors, mood swings, epileptic symptoms
[7] = system: Sexual Function, ADD, and Rage Outbursts; experiment: Case history 3, Sibutramine Patient No. 100; type: in vivo, human; conditions: mood swings, cognitive, anger, sexual problems; before sibutramine
[8] = system: Severe Atypical Psychosis; experiment: Case history 1, Sibutramine Patient No. 97; type: in vivo, human; conditions: treatments before sibutramine
[9] = system: Severe Post-Traumatic Stress Reaction; conditions: for response of PTSD symptoms to other medications: before sibutramine
Protocol: Finally, this patient was taken off of fluoxetine 20 mg when sibutramine treatment was initiated.

[10] = system: Asocial Behavior, Violence, and Hyposexuality; experiment: Case history 10, Sibutramine Patient No. 54; type: in vivo, human; conditions: before sibutramine
[11] = system: ADHD Refractory to Other Treatments; type: in vivo, human; conditions: for response of ADHD to other medications: four years before sibutramine; for side effects of other medications: human, in vivo
Protocol: 16. ADHD Refractory to Other Treatments (Problem No. 6) Sibutramine Patient No. 16
The amphetamines made their nervous, jittery, and unable to sleep. […] They were started on sibutramine 10 mg every morning by mouth. […] After the first month, their dose was changed to 5 mg three times daily due to a five hour duration of effects.

[12] = system: Sexual Obsessive-Compulsive Behavior, ADD and Executive Function; experiment: Case history 6, Sibutramine Patient No. 77; type: in vivo, human; conditions: before sibutramine
[13] = system: frontal lobe executive function, ADHD, and hyposexuality; conditions: human, in vivo
[14] = system: Torticollis, Lingual Dystonia and Dyskinesia; experiment: Case history 23; type: in vivo, human; conditions: in vivo
[15] = system: Sexual Function and ADD; experiment: Case history 4, Sibutramine Patient No. 109; type: in vivo, human; conditions: before sibutramine

Molecule | response to other medications [3] | response to other medications [5] | response to other medications [6] | response to other medications [7] | response of PTSD symptoms to other medications [9] | response of ADHD to other medications [11] | response to other medications [12] | other results
COC(=O)C(c1ccccc1)C1CCCCN1 (stereo not drawn) [Ritilin] |  |  |  |  |  |  |  | response to other treatments [1]: None of these treatments had any effect on their symptoms
NC(=O)N1c2ccccc2C=Cc2ccccc21 [carbamazepine] | without any good results | without success | impulsive behaviors, mood swings, and epileptic symptoms were relieved | helped with their mood swings but not with their anger, sexual, or cognitive problems | unsuccessful |  |  | response to other medications [2]: unsuccessful; response to previous medications [4]: no longer responded; response of psychosis symptoms to other medications [8]: did not control their symptoms; response to other medications [10]: without any changes in their speech or mode of communication
C[C@H](N)Cc1ccccc1 [dextroamphetamine] |  | without success |  | unsuccessful | unsuccessful | without success | unsuccessful | 
CNCCC(Oc1ccc(C(F)(F)F)cc1)c1ccccc1 (stereo not drawn) [fluoxetine] |  |  | refractory |  |  |  |  | response to other medications [13]: unsuccessful; response to previous medications [4]: no longer responded; response of psychosis symptoms to other medications [8]: without success; depression ([9]; human, in vivo): the depression and PTSD were relieved
COC(=O)C(c1ccccc1)C1CCCCN1 (stereo not drawn) [methylphenidate] | without any good results | without success | refractory | unsuccessful | unsuccessful | without success | unsuccessful | side effects of other medications [11]: made their sleepy; response to other medications [2]: initially treated successfully; response to other medications [13]: Initially their attention problems responded; response to other medications [10]: without any changes in their speech or mode of communication
botulinum toxin |  |  |  |  |  |  |  | response to other treatment [14]: only temporarily relieved their symptoms
magnesium pemoline | without any good results | without success |  | not helpful |  | without success | unsuccessful | side effects of other medications [11]: made their sleepy; response to other medications [15]: unsuccessful
